The results in this text go back to publication PMC9763021, “Comprehensive Assessment of Biomolecular Interactions of Morpholine-Based Mixed Ligand Cu(II) and Zn(II) Complexes of 2,2′-Bipyridine as Potential Anticancer and SARS-CoV-2 Agents: A Synergistic Experimental and Structure-Based Virtual Screening” (Bioinorganic Chemistry and Applications, 2022).

Assay [1] concerns the target BSA (Bos taurus, UniProt P02769). Briefly: BSA fluorescence quenching (emission titration). The class given is binding, bovine. Particulars: values in brackets; for KSV (BSA), SV method I: 350 nm; for P (BSA), ratio of fluorescence quantum efficiency: F/F0 vs 1/[BSA]; for Kq (BSA), SV method I: Kq=KSV/τ0; for ∆Gb° (BSA), SV method II: –RT lnKass. As to the method: The experiment was performed in the 200 to 800 nm region. This is supporting evidence for the complexes' manner of deoxyribonucleic acid binding. When DNA (200 μM) was present or absent, we carefully monitored the intensity variations between 610 nm and 510 nm during the initial emission and excitation of EB [6, 28, 37]. Similarly, emission titrations for BSA interaction with different concentrations between 2.5 μM and 25 μM for all substances were conducted in a Tris-HCl buffer solution (pH: 7.4) between the regions of 300 nm and 400 nm.
K SV is denoted as Stern–Volmer binding constant; Kass is represented as association binding constant; Kapp is represented as apparent binding constant, Kapp=KEB[EB]/[compound]=500/[compound], KEB = 10^7 M^−1 at the concentration of 50 μM EB; Gibb's free energy change ΔGb°=–RT lnKass; Kq is represented as bimolecular quenching rate constant/Stern–Volmer dynamic quenching rate constant (Kq=KSV/τ0), average life time of the biomolecular quenching in the absence of a quencher (τ0) = 10^−8 S; Gibb's free energy change ΔGb°=–RT lnKass (where R = […], T = 298 K); KLB is represented as Lineweaver–Burk (LWB) binding constant; KSA is represented as Scatchard association binding constant; Kapp is denoted as apparent binding constant; n is the number of binding sites; P is a ratio of fluorescence quantum efficiency of DNA bound and free complex (P=ɸb/ɸf), which is obtained as intercept from plot F/F0 vs. 1/[DNA], Error limit is ± 2.5% (P < 0.025).(12) Fcorr=Fobs×e^Aex×dex+Aem×dem/2=Fobs×e^Aex+Aem/2, where Fcorr and Fobs are represented as the IFE-corrected fluorescence and observed (uncorrected) emission intensities, respectively. dex and dem are denoted as the cuvette path lengths in the excitation and emission directions, respectively. Aex and Aem are represented as the change in absorbance at the excitation and fluorescence wavelengths, respectively.(13) F0 /F=1+KSVQ=1+Kq τ0, where [Q] is represented as the sample concentration, the emission intensities F0 and F of DNA/BSA in the absence and presence of the quencher (sample), respectively.(14) F0 /F−1=F0−F/F=KSVQlogF0−F/F=logKass+n logQ, (15) KEBEB=Kappcompound, (16) 1/F0−F=1/F0 KLBQ+1/F0 , (17) γ/CF =KSCn−γ, where γ = [(F0 − F)/F0], and CF is denoted as the concentration of sample alone.
Additionally, the intensity of bovine serum albumin was monitored at 350 nm (λex = 278 nm) during fluorescence titration. When increasing the sample concentrations, the BSA intensity diminishes dramatically owing to static quenching in the ground state. It is noted that the fluorophores of BSA are not clearly exposed to a shift in polarity. […] Additionally, the Stern–Volmer equations (12)-(13) were employed to analyze the data (Figure S27 and Table 4). […] They are also much exceeded compared to the collision quenching constant value (2.0 × 10^10 mol^−1·s^−1). Therefore, it is assumed that the static quenching process was brought on by adduct construction between the compounds and bovine serum albumin rather than a dynamic collision. However, fluorescence spectroscopy is generally plagued by the inner filter effect (IFE), which disturbs the spectral analysis in particular. The energizing ray is attenuated due to the highly concentrated solution sample. As a result, strong fluorescence is only seen on surfaces facing the excitation beam. The fluorescence intensity is reduced as a result of an inner filter effect generated by some chemicals' absorption of the excitation or emission wavelength in the UV province. The observed values of the absorption wavelength of ligand (HL) and mixed ligand complexes (1a-2a) in the range of 335–337 nm, the bovine serum albumin excitation wavelength of 278 nm, and emission wavelength of 350 nm were used to assess the effect of IFE in this approach. Equation (12) is employed to solve IFE in this instance as well (Table 4). […]

The test system of assay [2] is Shigella flexneri. As to the kind of experiment: Agar disc diffusion, strain E. The format is cell-based. Also on record: (inhibition %): concentration or dose not given beside the values. The note with it: for diameter of the clear zone inhibition: control = 6 mm. The protocol:
(§1) In-vitro antimicrobial properties were evaluated for all samples by the agar disc diffusion method towards different fungal and bacterial strains. Additionally, the reported inhibition zone values were comparatively analyzed with the standard antifungal drugs ketoconazole and amphotericin B as well as the standard antibiotic medications streptomycin and amikacin.
(§2) The current research has a curious focus on the in vitro antimicrobial properties of biological systems because these studies are crucial for developing effective antibacterial and antifungal medications. […] It can also be spelled out based on the chelation theory proposed by Overtone and Tweedy. Chelation theory points out that the partial exchanging of the positive charge of the metal center with donor moieties, and overlap of the ligand orbitals will reduce the greater degree of the metal ion's polarity, which ultimately rises the delocalization of π and d electrons over the full chelated ring system. By raising the size of the metal ion due to the retarding of polarization, chelation may also enhance the complexes' lipophilic characteristics, which further stimulate the lipid membrane permeability and break down the bacteria' enzymes responsible for cell wall formation, therefore slowing down the regular cell processes. By preventing the production of cell walls/proteins/DNA, including by obstructing folate metabolism and the cytoplasmic membrane, antimicrobial drugs frequently either fully eliminate microbes or only prevent their cell growth. Additionally, the samples' mode of action may be employed in disrupting the cell's respiration process by forming an H-bond during the morpholine-fused iminic group coordinated with the active metal center of its components, inhibiting proliferation of the cell. […] The difference in the antimicrobial efficacy of some of the compounds towards various microorganisms influences on the impermeability of the cells of the germs or the diversity of ribosomes of the microbes. The % of the inhibition of all substances is estimated from (45) (Table 9).
(§3) (A, B, C, D, and E are represented as gram negative bacteria species Escherichia coli, Salmonella enteric serovar typhi, Salmonella enteric serovar typhi, Pseudomonas aeruginosa, and Shigella flexneri, respectively. F & G are denoted as gram positive bacteria species Staphylococcus aureus and Bacillus cereus. H, I, and J are represented as fungal strains Aspergillus niger, Candida albicans, and Mucor indicus. Standard drugs for bacterial strains: Amikacin & Streptomycin Standard drugs for fungal strains: Ketoconazole and Amphotericin B. [Control (DMSO) = 6 mm].(44) Inhibition %=T–C/T×100, where T and C are represented as the diameter of microbial growth of the sample plates and the control plate (6 mm), respectively. Error limits ±2.5–5.0% (P ≤ 0.05).
(In agar diffusion tests the substance spreads into inoculated agar from a disc or well.)

Assay [3] deals with Bacillus cereus. As to the kind of experiment: Agar disc diffusion, strain G. Set-up: (inhibition %): concentration or dose not given beside the values. Particulars: for diameter of the clear zone inhibition: control = 6 mm. The format is cell-based. As to the method:
as §1, §2, §3

For the molecule `[Cu+2].[O-]c1ccccc1N=Cc1ccc(N2CCOCC2)cc1.[O-]c1ccccc1N=Cc1ccc(N2CCOCC2)cc1.c1ccc(-c2ccccn2)nc1` [(1a), [Cu(L)2(bpy)]], in assay [1], the “Kass (BSA), SV method II” value was 87340 M⁻¹; the “n (BSA), SV method II” value stood at 1.059; the “KSV (BSA), SV method I” value was determined as 86910 M⁻¹; the “P (BSA), ratio of fluorescence quantum efficiency” value (shortened to “P (BSA), ratio”) was 0.252. For the same molecule, in assay [1], the “Kq (BSA), SV method I” value is 8.691e+12 M⁻¹ s⁻¹ and the “∆Gb° (BSA), SV method II” value is given as −28.2 kJM^−1. Moreover, in assay [2], the “(inhibition %)” value stood at 45% and the “diameter of the clear zone inhibition” value worked out at 11 mm. In assay [3], the “(inhibition %)” value was found to be 54% and the “diameter of the clear zone inhibition” value turned out to be 13 mm.

Regarding `[O-]c1ccccc1N=Cc1ccc(N2CCOCC2)cc1.[O-]c1ccccc1N=Cc1ccc(N2CCOCC2)cc1.[Zn+2].c1ccc(-c2ccccn2)nc1` [(2a), [Zn(L)2(bpy)]], in assay [1], the “Kass (BSA), SV method II” value came out at 52910 M⁻¹; the “n (BSA), SV method II” value is reported as 1.041; the “KSV (BSA), SV method I” value was determined as 48050 M⁻¹; the “P (BSA), ratio” value is 0.348. Also, in assay [1], the “Kq (BSA), SV method I” value turned out to be 4.805e+12 M⁻¹ s⁻¹ and the “∆Gb° (BSA), SV method II” value is given as −26.9 kJM^−1. For the same molecule, in assay [2], the “(inhibition %)” value is given as 45% and the “diameter of the clear zone inhibition” value is reported as 11 mm. Also, in assay [3], the “(inhibition %)” value is 57% and the “diameter of the clear zone inhibition” value is listed as 14 mm.

As for `Oc1ccccc1N=Cc1ccc(N2CCOCC2)cc1` [(HL), 2-(4-morpholinobenzylideneamino)phenol], in assay [1], the “Kass (BSA), SV method II” value is 10620 M⁻¹; the “n (BSA), SV method II” value was determined as 0.926; the “KSV (BSA), SV method I” value came out at 26390 M⁻¹; the “P (BSA), ratio” value stood at 0.464. Moreover, in assay [1], the “Kq (BSA), SV method I” value was determined as 2.639e+12 M⁻¹ s⁻¹ and the “∆Gb° (BSA), SV method II” value is on record as −23.0 kJM^−1. In assay [2], the “(inhibition %)” value is reported as 57% and the “diameter of the clear zone inhibition” value stood at 14 mm. Besides, in assay [3], the “(inhibition %)” value is recorded as 33% and the “diameter of the clear zone inhibition” value is on record as 09 mm.
